Data taken from patent publication US7183320B2, “Benzoylsulfonamides and sulfonylbenzamidines for use as antitumour agents” (Eli Lilly and Company, priority 2002, dated 2007).
pIC50: −log10 of the molar value.

Test system: not given
Experiment: not given
Conditions: not given

Compound O=C(NS(=O)(=O)c1ccc(O)cc1)c1ccc(Cl)cc1Cl [Example 117, N-[2,4-dichlorobenzoyl]-4-hydroxyphenylsulfonamide] has a melting point of 155 to 157 °C.

Test system: HCT116 colon carcinoma cells
Experiment: HCT116 colon carcinoma cell growth inhibition (WST-1, 72 hr)
Assay type: cell-based, human
Conditions: Homo sapiens, HCT-116, 72 hr exposure
Description: HCT116 Colon Carcinoma Cell Growth Inhibition
HCT116 colon carcinoma cells were grown monolayer culture in RPMI 1640 medium supplemented with 10% fetal bovine serum and 1% penicillin-streptomycin (GibcoBRL, Grand Island, N.Y.). HCT116 cells in exponential growth phase were exposed to various concentrations of the test compounds at 37° C. for 72 hr in 5% carbon dioxide/air. After exposure to the agent, the cells were washed with 0.9% phosphate buffered saline. Growth inhibition was determined using WST-1 cell proliferation reagent as described above. The results are expressed as the growth fraction of treated cells compared with control cultures. Representative compounds of the present invention were tested for efficacy against the human colon HCT116 tumor cells.

Compared with Cc1cc(Cl)ccc1C(=O)NS(=O)(=O)c1ccc(OC(F)(F)F)cc1 [Example 51, N-[2-methyl-4-chlorobenzoyl]-4-trifluoromethoxy-phenylsulfonamide], COc1ccc(S(=O)(=O)NC(=O)c2ccc(Cl)cc2C)cc1 [Example 41, N-[2-methyl-4-chlorobenzoyl]-4-methoxyphenylsulfonamide] is 0.27 log units higher in pIC50: 4.57 for the first, 4.84 for the second. The second is the more potent here.

Cc1cc(Cl)ccc1C(=O)NS(=O)(=O)c1ccc(Cl)cc1 [Example 93, N-[2-methyl-4-chlorobenzoyl]-4-chlorophenylsulfonamide] and Cc1cc(Cl)ccc1C(=O)NS(=O)(=O)c1ccc(I)cc1 [Example 56, N-[2-methyl-4-chlorobenzoyl]-4-iodophenylsulfonamide] are within 0.2 log units of each other in pIC50: 4.74 for the first, 4.77 for the second.

Going from O=C(NS(=O)(=O)c1ccc(Br)cc1)c1ccc(C(F)(F)F)cc1C(F)(F)F [Example 49, N-[2,4-bis-trifluoromethylbenzoyl]-4-bromophenylsulfonamide] to O=C(NS(=O)(=O)c1ccc(F)cc1)c1ccc(C(F)(F)F)cc1C(F)(F)F [Example 46, N-[2,4-bis-trifluoromethylbenzoyl]-4-fluorophenylsulfonamide], the pIC50 rises from 4.83 to 5.32 (0.49 log units). The second is the more potent here.

Cc1cc(Cl)ccc1C(=O)NS(=O)(=O)c1cccc(Br)c1 [Example 90, N-[2-methyl-4-chlorobenzoyl]-3-bromophenylsulfonamide] and Cc1cc(Cl)ccc1C(=O)NS(=O)(=O)c1cccc(C#N)c1 [Example 106, N-[2-methyl-4-chlorobenzoyl]-3-cyanophenylsulfonamide] are within 0.2 log units of each other in pIC50: 5.35 for the first, 5.34 for the second.

CCSc1ccc(S(=O)(=O)NC(=O)c2ccc(Br)cc2C)cc1 [Example 61, N-[2-methyl-4-bromobenzoyl]-4-ethylthiophenyl-sulfonamide] and Cc1cc(Br)ccc1C(=O)NS(=O)(=O)c1ccc(Br)cc1 [Example 100, N-[2-methyl-4-bromobenzoyl]-4-bromophenylsulfonamide] are within 0.2 log units of each other in pIC50: 4.85 for the first, 5.04 for the second.

Going from CC(C)c1ccc(S(=O)(=O)NC(=O)c2ccc(C(F)(F)F)cc2C(F)(F)F)cc1 [Example 63, N-[2,4-bis-trifluoromethylbenzoyl]-4-isopropylphenyl-sulfonamide] to COc1ccc(S(=O)(=O)NC(=O)c2ccc(C(F)(F)F)cc2C(F)(F)F)cc1 [Example 47, N-[2,4-bis-trifluoromethylbenzoyl]-4-methoxyphenylsulfonamide], the pIC50 rises from 4.61 to 5.06 (0.45 log units). The second is the more potent here.

Compared with O=C(NS(=O)(=O)c1ccc(-c2ccoc2)cc1)c1ccc(Cl)cc1Cl [Example 126, N-[2,4-dichlorobenzoyl]-4-fur-3-yl-phenylsulfonamide], O=C(NS(=O)(=O)c1ccc(Cl)cc1)c1ccc(Br)cc1Cl [Example 112, N-[2-chloro-4-bromobenzoyl]-4-chlorophenylsulfonamide] is 0.82 log units higher in pIC50: 4.73 for the first, 5.55 for the second.

First: O=C(NS(=O)(=O)c1cccc(Cl)c1)c1ccc(Br)cc1Cl [Example 17, N-[2-chloro-4-bromobenzoyl]-3-chlorophenylsulfonamide]
Second: O=C(NS(=O)(=O)c1ccccc1)c1ccc(Br)cc1Cl [Example 11, N-[2-chloro-4-bromobenzoyl]-phenylsulfonamide]
The pIC50 of the first is 0.46 log units lower: 4.80 for the first, 5.26 for the second.

N=C(NS(=O)(=O)c1ccc(F)c(Cl)c1)c1ccc(F)c(Cl)c1 [Example 116, N-[3-chloro-4-fluorophenylsulfonyl]-3-chloro-4-fluorobenzamidine] and Cc1cc(Cl)ccc1C(=O)NS(=O)(=O)c1ccc(F)c(F)c1 [Example 57, N-[2-methyl-4-chlorobenzoyl]-3,4-difluorophenyl-sulfonamide] are within 0.2 log units of each other in pIC50: 5.23 for the first, 5.30 for the second.

First: COc1c(C)cc(S(=O)(=O)NC(=O)c2ccc(Cl)cc2Cl)cc1C [Example 97, N-[2,4-dichlorobenzoyl]-4-methoxy-3,5-dimethylphenylsulfonamide]
Second: Cc1ccc(S(=O)(=O)NC(=O)c2ccc(Cl)cc2C)cc1 [Example 23, N-[2-methyl-4-chlorobenzoyl]-4-methylphenylsulfonamide]
The pIC50 of the first is 0.35 log units higher: 5.15 for the first, 4.80 for the second. The first is the more potent here.

O=C(NS(=O)(=O)c1ccc(F)cc1)c1ccc([N+](=O)[O-])cc1Cl [Example 101, N-[2-chloro-4-nitrobenzoyl]-4-fluoro-phenylsulfonamide] and O=C(NS(=O)(=O)c1ccc(Cl)cc1)c1ccc([N+](=O)[O-])cc1Cl [Example 10, N-[2-chloro-4-nitrobenzoyl]-4-chlorophenylsulfonamide] are within 0.2 log units of each other in pIC50: 4.91 for the first, 4.92 for the second.

Compared with O=C(NS(=O)(=O)c1ccc(Br)cc1)c1ccc(Br)cc1Cl [Example 14, N-[2-chloro-4-bromobenzoyl]-4-bromophenylsulfonamide], O=C(NS(=O)(=O)c1ccc(F)cc1)c1ccc(Br)cc1Cl [Example 16, N-[2-chloro-4-bromobenzoyl]-4-fluorophenylsulfonamide] is 1.02 log units higher in pIC50: 4.40 for the first, 5.42 for the second. The second is the more potent here.

Going from Cc1cc(Br)ccc1C(=O)NS(=O)(=O)c1ccc(I)cc1 [Example 36, N-[2-methyl-4-bromobenzoyl]-4-iodophenylsulfonamide] to O=C(NS(=O)(=O)c1ccc(I)cc1)c1ccc(Br)cc1Br [Example 38, N-[2,4-dibromobenzoyl]-4-iodophenylsulfonamide], the pIC50 rises from 4.55 to 4.86 (0.31 log units).

First: COc1ccc(S(=O)(=O)NC(=O)c2ccc([N+](=O)[O-])cc2Cl)cc1 [Example 20, N-[2-chloro-4-nitrobenzoyl]-4-methoxyphenylsulfonamide]
Second: O=C(NS(=O)(=O)c1ccc(Br)cc1)c1ccc([N+](=O)[O-])cc1Cl [Example 15, N-[2-chloro-4-nitrobenzoyl]-4-bromophenylsulfonamide]
The pIC50 of the first is 0.64 log units higher: 5.62 for the first, 4.98 for the second. The first is the more potent here.

First: COC(=O)c1cc(S(=O)(=O)NC(=O)c2ccc(Br)cc2Br)ccc1OC [Example 34, N-[2,4-dibromobenzoyl]-3-methoxycarbonyl-4-methoxyphenylsulfonamide]
Second: CC(C)c1ccc(S(=O)(=O)NC(=O)c2ccc(Cl)cc2Br)cc1 [Example 73, N-[2-bromo-4-chlorobenzoyl]-4-isopropylphenyl-sulfonamide]
The pIC50 of the first is 0.30 log units lower: 4.78 for the first, 5.08 for the second. The second is the more potent here.

CCSc1ccc(S(=O)(=O)NC(=O)c2ccc(Cl)cc2Cl)cc1 [Example 62, N-[2,4-dichlorobenzoyl]-4-ethylthiophenyl-sulfonamide] and O=C(NS(=O)(=O)c1ccc(Cl)c(Cl)c1)c1ccc([N+](=O)[O-])cc1Cl [Example 21, N-[2-chloro-4-nitrobenzoyl]-3,4-dichlorophenyl-sulfonamide] are within 0.2 log units of each other in pIC50: 4.71 for the first, 4.52 for the second.

For Cc1cccc(S(=O)(=O)NC(=O)c2ccc(C(F)(F)F)cc2C(F)(F)F)c1 [Example 50, N-[2,4-bis-trifluoromethylbenzoyl]-3-methylphenylsulfonamide], the pIC50 was 4.98.
